This note sets out measurements from patent US20220024921A1, “1,3,4-OXADIAZOLONE COMPOUND AND PHARMACEUTICAL” (NIPPON SHINYAKU CO., LTD., priority 2018, published 2022).

Counter-ions that a name gives are not always drawn.

The target of test [1] is PIM1 transgenic cells (Ba/F3) (Homo sapiens, UniProt P11309). As to the kind of experiment: Proliferation inhibitory effect on PIM1 transgenic cells. The class given is cell-based, mouse. The conditions noted are these: proliferation inhibition, 72 hours, Cell Counting Kit-8, read-out: PIM1 IC50. In outline:
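Mouse Ba/F3 pro-B cells were retrovirally transduced with human PIM1 so that their proliferation depends on PIM1. Cells were treated with compound at 1–10000 nM final for 72 h, then read by CCK-8 (OD450−OD650). Inhibition was set against DMSO (0%) and no-cell blank (100%), and IC50 was obtained by two-parameter logistic regression.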

Test [2] has as its target T1, PIM1 serine/threonine kinase (Homo sapiens, UniProt P11309).
T1 construct: purchased Carna Bioscience, Inc
The test can be described thus: PIM1 serine/threonine kinase inhibitory effect. The class given is biochemical. The conditions noted are these: PIM1 serine/threonine kinase activity; ATP 40 μM; 30° C., 30 minutes. Summed up:
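Compounds were tested in duplicate from 0.01 to 10000 nM final against PIM1 kinase (0.15 μg/ml). The reaction ran for 30 minutes at 30° C with 40 μM ATP and 0.5 μM biotin-tagged substrate at pH 7.0. Phosphorylation was read by time-resolved FRET (OD665/OD620) after 1 h; IC50 by non-linear fit.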

Sequence of PIM1 transgenic cells (Ba/F3) (P11309 whole entry, stated change not applied): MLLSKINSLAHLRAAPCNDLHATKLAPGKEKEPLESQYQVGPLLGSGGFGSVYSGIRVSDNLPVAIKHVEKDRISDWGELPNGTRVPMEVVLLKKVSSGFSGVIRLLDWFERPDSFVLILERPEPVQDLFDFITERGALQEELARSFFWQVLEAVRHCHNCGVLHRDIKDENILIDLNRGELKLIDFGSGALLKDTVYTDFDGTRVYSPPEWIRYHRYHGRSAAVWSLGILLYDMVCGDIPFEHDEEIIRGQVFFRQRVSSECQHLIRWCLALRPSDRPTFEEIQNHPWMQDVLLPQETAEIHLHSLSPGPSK
T1 sequence (P11309 whole entry): as the sequence (P11309 whole entry, stated change not applied) above

In general, IC50 refers to the concentration at which inhibition is half-maximal. The low end stands for greater potency in that assay, the high end for weaker potency in that assay. With `C[C@H](Nc1cc(-c2n[nH]c(=O)o2)cc(F)c1Cl)[C@H]1C[C@@H](N)C1` [Example 178, 5-[3-({(1S)-1-[(1s,3R)-3-aminocyclobutyl]ethyl}amino)-4-chloro-5-fluorophenyl]-1,3,4-oxadiazol-2(3H)-one hydrochloride], the GI50 in test [1] worked out at 34 nM. Also, half-maximal inhibition in test [2] (IC50) required 3.2 nM.

Regarding `CC(C)Oc1c(F)cc(-c2n[nH]c(=O)o2)cc1N[C@@H](C)[C@H]1CC[C@H](N)CC1` [Example 175, 5-{3-({(1S)-1-[(1r,4S)-4-aminocyclohexyl]ethyl}amino)-5-fluoro-4-[(propan-2-yl)oxy]phenyl}-1,3,4-oxadiazol-2(3H)-one dihydrochloride], in test [1], the GI50 came out at 320 nM. Further, in test [2], the IC50 was 17 nM.

In the case of `O=c1[nH]nc(-c2cc(F)c(C(F)(F)F)c(N[C@@H](CF)C3CCNCC3)c2)o1` [Example 160, 5-[3-fluoro-5-{[(1R)-2-fluoro-1-(piperidin-4-yl)ethyl]amino}-4-(trifluoromethyl)phenyl]-1,3,4-oxadiazol-2(3H)-one hydrochloride], in test [1], the GI50 worked out at 40 nM. Besides, half-maximal inhibition in test [2] (IC50) required 1.2 nM.

On to `N[C@H]1CCCN(CCNc2cc(-c3n[nH]c(=O)o3)ccc2C(F)(F)F)C1` [Example 73, 5-[3-({2-[(3S)-3-aminopiperidin-1-yl]ethyl}amino)-4-(trifluoromethyl)phenyl]-1,3,4-oxadiazol-2(3H)-one dihydrochloride], for which the GI50 in test [1] turned out to be 570 nM. In test [2], the IC50 stood at 21 nM.

Turning to `NCC[C@H]1CC[C@H](Nc2cc(-c3n[nH]c(=O)o3)ccc2C(F)(F)F)CC1` [Example 44, 5-[3-{[(1r,4r)-4-(2-aminoethyl)cyclohexyl]amino}-4-(trifluoromethyl)phenyl]-1,3,4-oxadiazol-2(3H)-one hydrochloride], the GI50 in test [1] was determined as 330 nM. In test [2], this compound showed an IC50 of 4.2 nM.

As for `O=c1[nH]nc(-c2cc(NCC3(F)CCNCC3)c3cn[nH]c3c2)o1` [Example 116, 5-(4-{[(4-fluoropiperidin-4-yl)methyl]amino}-1H-indazol-6-yl)-1,3,4-oxadiazol-2(3H)-one hydrochloride], in test [1], the GI50 is 4200 nM. For the same compound, the IC50 in test [2] was 4.3 nM.

For `C[C@H](Nc1cc(-c2n[nH]c(=O)o2)cc(N)c1Cl)C1CCNCC1` [Example 92, 5-(3-amino-4-chloro-5-{[(1S)-1-(piperidin-4-yl)ethyl]amino}phenyl)-1,3,4-oxadiazol-2(3H)-one dihydrochloride], the GI50 in test [1] worked out at 280 nM. For the same compound, the IC50 in test [2] was determined as 2.6 nM.

For `C[C@@H]1CNCC[C@@H]1[C@H](C)Nc1cc(-c2n[nH]c(=O)o2)ccc1Cl` [Example 221, 5-[4-chloro-3-({(1S)-1-[(3S,4S)-3-methylpiperidin-4-yl]ethyl}amino)phenyl]-1,3,4-oxadiazol-2(3H)-one], the GI50 in test [1] is 46 nM. In addition, the midpoint of inhibition in test [2], the IC50, lay at 7.2 nM.

`O=c1[nH]nc(-c2ccc(C(F)(F)F)c(NCC3CCNCC3)c2)o1` [Example 48, 5-[3-{[(piperidin-4-yl)methyl]amino}-4-(trifluoromethyl)phenyl]-1,3,4-oxadiazol-2(3H)-one hydrochloride]: in test [1], the GI50 came to 1200 nM. Also, half-maximal inhibition in test [2] (IC50) was put at 4.4 nM.

For `C[C@H](Nc1cc(-c2n[nH]c(=O)o2)ccc1C(F)(F)F)[C@H]1C[C@@H](N)C1(C)C` [Example 153, 5-[3-({(1S)-1-[(1S,3R)-3-amino-2,2-dimethylcyclobutyl]ethyl}amino)-4-(trifluoromethyl)phenyl]-1,3,4-oxadiazol-2(3H)-one hydrochloride], in test [1], the GI50 was found to be 40 nM. In test [2], this compound came in with an IC50 of 3.1 nM.

`C[C@H](Nc1cc(-c2n[nH]c(=O)o2)cc(Br)c1Cl)[C@H]1C[C@@H](N)C1` [Example 182, 5-[3-({(1S)-1-[(1s,3R)-3-aminocyclobutyl]ethyl}amino)-5-bromo-4-chlorophenyl]-1,3,4-oxadiazol-2(3H)-one hydrochloride]: the GI50 in test [1] is 45 nM. This compound also yielded an IC50 in test [2] of 1.7 nM.
